Test results as given in patent publication US20220193241A1, “AGENT TARGETING DOUBLE-MEMBRANE ORGANELLE DNA” (CHIBA-PREFECTURE, priority 2019, published 2022).

Key:
ME180 = assay: WST cell proliferation assay of library compounds; type: cell-based; conditions: Homo sapiens, ME-180, 120 h; ME180, 5 days
Source text: (§1) Compound CCCh560-TPP with a decacyclic structure targeting the A8860G polymorphism of mitochondrial gene ATP6 found in human populations, not acquired mitochondrial mutations in somatic cells, was studied for whether the suppression of cell proliferation was also found by 5-day treatment with the compound for the mitochondrial DNA polymorphism in cancer cell lines C33A, HeLa, Siha, Caski, and ME180 having this polymorphism in homoplasmy and human nontumor skin-derived fibroblast HDF cells. For this purpose, cell proliferation assay was conducted in the same manner as in Example 1. 1000 cells were inoculated to a 96-well plate, and CCCh560-TPP was administered at 0.5, 1, 5, 10, and 20 μM. 5 days later, WST assay was conducted.

[1] = test system: HDF (human skin fibroblasts); assay: WST cell proliferation assay of library compounds; type: cell-based; conditions: 5 days
Source text: as §1

Caski = assay: WST cell proliferation assay of library compounds; type: cell-based; conditions: Homo sapiens, Ca-Ski, 120 h, 5 days
Source text: as §1

Siha = assay: WST cell proliferation assay of library compounds; type: cell-based; conditions: Homo sapiens, 120 h, 5 days
Source text: as §1

C33A = assay: WST cell proliferation assay of library compounds; type: cell-based; conditions: Homo sapiens, C-33-A, 120 h, 5 days
Protocol: (§2) This compound can recognize the T4216C mutation of mitochondrial ND1 gene, and a uterine cervical cancer cell line C33A has this mutation. Cell proliferation assay with wild-type HeLa cells, which is also a uterine cervical cancer cell line, was conducted in the same manner as in Example 1. 1000 cells were inoculated to a 96-well plate, and CCC1283-TPP was administered at 0.5, 1, 5, 10, and 20 μM. 5 days later, WST assay was conducted.
(§3) This compound can recognize the T4216C mutation of mitochondrial ND1 gene, and a uterine cervical cancer cell line C33A has this mutation. Cell proliferation assay with wild-type HeLa cells, which is also a uterine cervical cancer cell line, was conducted in the same manner as in Example 1. 1000 cells were inoculated to a 96-well plate, and CCCh531-TPP was administered at 0.5, 1, 5, 10, and 20 μM. 5 days later, WST assay was conducted.
as §1

HeLa cells = assay: WST cell proliferation assay of library compounds; type: cell-based; conditions: Homo sapiens, 120 h, 5 days
Protocol: as §2, §3, §1

HeEB1 cells = assay: mRNA expression of cell cycle arrest- and apoptosis-related genes by real-time PCR; type: cell-based, human; conditions: 25 μM, 3 days
Protocol: (§4) In order to elucidate the mechanism of the cell proliferation suppressive effect by CCC020-TPP administration, expression analysis at the mRNA level was conducted by real-time PCR. The mtDNA mutation cell line (3243G High) and the normal cell line (HeEB1) were inoculated at 5×10^5 cells/dish and 1×10^5 cells/dish, respectively, to 6 cm dishes (Falcon), cultured for 24 hours, and then treated with CCC020-TPP (final concentration: 25 μM). After further culture for 3 days, RNA was extracted using RNeasy Plus Mini Kit (QIAGEN) according to the instruction manual. The yield of the RNA thus extracted was measured using NANO DROP 2000™ (Thermo Fisher Scientific). The reverse-transcription reaction of RNA was performed with 500 ng of RNA per sample using SuperScript VILO Master Mix (Invitrogen) to synthesize cDNA. The synthesized cDNA was diluted 5-fold with ultrapure water.
(§5) Real-time PCR employed Power SYBR Green Master Mix (Applied Biosystems), and cDNA sample preparation, PCR reaction and analysis were conducted. The primers and reaction conditions used are shown below.
(§6) The PCR reaction conditions were as follows.

3243G High cells [2] = assay: as above; type: cell-based, human; conditions: 25 μM, 3 days
Protocol: as §4, §5, §6

HeEB1 (HeLamtHeLa) cells = assay: WST assay of cell proliferation with morphological observation; type: cell-based, human; conditions: 5 days
Protocol: (§7) The proliferation suppressive effect of CCC020-TPP on cells having the mitochondrial A3243G mutation was evaluated by WST assay. Both a mitochondrial DNA mutated cell line and a normal cell line were inoculated at 1×10^3 cells/well to 96-well plates (Thermo Fisher Scientific), cultured for 24 hours, and then treated with CCC020-TPP (final concentration: 0, 0.1, 1, 10, 20, and 50 μM). The cells were further cultured for 5 days and then morphologically observed under optical microscope IX71 (OLYMPUS, Tokyo, Japan). Then, cell survival rates were calculated using Cell counting kit-8 (DOJINDO, Kumamoto, Japan) according to the instruction manual. DMSO (FUJIFILM Wako Pure Chemical Corp.) (final concentration: 1%) was added as a control to cells.
(§8) IC50 was calculated according to the following expression:
(§9) IC50=10(LOG(A/B)×(50−C)/(D−C)+LOG(B)) • A: higher concentration across the concentration at the cell survival rate of 50% • B: lower concentration across the concentration at the cell survival rate of 50% • C: inhibition rate at the lower concentration across the concentration at the cell survival rate of 50% • D: inhibition rate at the higher concentration across the concentration at the cell survival rate of 50%

3243G Low cells = assay: as above; type: cell-based, human; conditions: 5 days
Protocol: as §7, §8, §9

3243G High cells [3] = assay: as above; type: cell-based, human; conditions: 5 days
Protocol: as §7, §8, §9

3243G High cells [4] = assay: Cell death induction: DAPI nuclear staining and cleaved caspase-3 immunostaining; type: cell-based, human; conditions: 25 μM, 5 days
Protocol: In order to confirm that the suppression of cell proliferation by CCC020-TPP was the induction of cell death, the 3243G High cells were inoculated at 5×10^4 cells/dish to a 35 mm glass base dish (IWAKI), cultured for 24 hours, and then treated with CCC020-TPP (final concentration: 25 μM). The cells thus supplemented with CCC020-TPP were further cultured for 5 days and fixed with 4% PFA/PBS at room temperature for 30 minutes. The cells thus fixed were washed with PBS and blocked with TBST containing 5% normal goat serum for 1 hour. After the completion of blocking, the cells were reacted for 1 hour with a primary antibody diluted with TBST, i.e., a rabbit anti-cleaved caspase-3 antibody (for the cells treated for 5 days: Cell Signaling Technology, Inc.) diluted at 1:200.

Row | SMILES | IC50 (ME180) | suppression of proliferation (WST) ([1]; 0.5-20 μM) | IC50 (WST) [1] | IC50 (Caski) | IC50 (Siha) | IC50 (C33A) | IC50 (HeLa cells) | expression of P21, BAX and MCL1 (HeEB1 cells) | expression of antiapoptosis-related gene MCL1 (3243G High cells [2]) | expression of cell cycle arrest-related gene P21 (3243G High cells [2]) | expression of proapoptosis-related gene BAX (3243G High cells [2]) | suppression of cell proliferation (WST) (HeEB1 (HeLamtHeLa) cells; 0.1-50 μM) | cell morphology under optical microscope (HeEB1 (HeLamtHeLa) cells) | suppression of cell proliferation (WST) (3243G Low cells; 0.1-50 μM) | cell morphology under optical microscope (3243G Low cells) | suppression of cell proliferation (WST) (3243G High cells [3]; 0.1-50 μM) | cell morphology under optical microscope (3243G High cells [3]) | cleaved caspase-3-positive cells (apoptosis) (3243G High cells [4]) | cells with fragmentation of the nucleus (3243G High cells [4]; DAPI)
1 | CN(C)CCCNC(=O)CCNC(=O)c1cc(NC(=O)c2cc(NC(=O)CCNC(=O)c3nc(NC(=O)c4cc(NC(=O)c5nc(NC(=O)CCCNC(=O)c6cc(NC(=O)c7nc(NC(=O)CCNC(=O)c8nc(NC(=O)c9nc(NC(=O)c%10nc(NC(=O)CCNC(=O)CCCC[P+](c%11ccccc%11)(c%11ccccc%11)c%11ccccc%11)cn%10C)cn9C)cn8C)cn7C)cn6C)cn5C)cn4C)cn3C)cn2C)cn1C [CCCh560-TPP] | 3.24 µM | tendency to suppress the proliferation | incalculable | 5.5 µM | 12.6 µM | 1.65 µM | 7.75 µM |  |  |  |  |  |  |  |  |  |  |  | 
2 | CN(C)CCCNC(=O)CCNC(=O)c1cc(NC(=O)c2cc(NC(=O)CCNC(=O)c3nc(NC(=O)c4nc(NC(=O)c5nc(NC(=O)CCNC(=O)CCCC[P+](c6ccccc6)(c6ccccc6)c6ccccc6)cn5C)cn4C)cn3C)cn2C)cn1C [CCC020-TPP] |  |  |  |  |  |  |  | no change in expression was found | significantly decreased | significantly increased | significantly increased | cell proliferation was not suppressed | no morphological change in cells was found | cell proliferation suppressive effect was markedly found | no morphological change in cells was found | cell proliferation suppressive effect was markedly found | cells that seemed to undergo apoptosis were markedly observed | approximately half | approximately 60%
